Experimental data published in patent US8974768B2, “Azo compounds reducing formation and toxicity of amyloid beta aggregation intermediates” (Max-Delbrueck-Centrum fuer Molekulare Medizin, priority 2010, dated 2015).
Where two headings read alike, the source gives them in different places. Marks after values point to notes of the source that are not given here.

What was measured:
[1] = Detection of compounds in brain after in vivo administration; conditions: for Detection in brain after i.v. administration: B6C3 mouse, 5 mg/kg body weight i.v. once, brain samples; for Detection in brain after oral administration, feeding pellet preparation / Detection in brain after oral administration, oral gavage administration: mouse; for Detection in brain after oral administration, feeding pellet preparation: brain samples after one week feeding; for Detection in brain after oral administration, oral gavage administration: five to seven doses over two or three days, sampling 30 min. after last application
[2] = biological target: Aβ1-42 peptide (Homo sapiens, UniProt P05067); experiment: Thioflavin T (Thio T)-assay of Aβ aggregation; format: biochemical
Sequence of Aβ1-42 peptide (P05067 672-713): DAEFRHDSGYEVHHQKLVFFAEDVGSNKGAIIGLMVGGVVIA

[3] = in vitro; conditions: human
[4] = tested on: 5XFAD mice; experiment: Nest building behaviour in 5XFAD mice; format: in vivo, mouse
Description: 3a: Nestlet usage; 3b: Nestlet quality score.
One hour before the dark phase, mice were housed individually in a cage with wood-chip bedding material. Each mouse was given 3 g of nestlet material made of compressed cotton (Lillico Biotech, UK). The amount of intact, i.e. non-used, nesting material was weighed after 16 hours and nest building was assessed using the following rating scale (Deacon et al., 2006, Tomida et al., 2009): 1, >90% intact; 2, 50-90% intact; 3, 10-50% intact: 4, 0-10% intact, but flat nest; 5, 0-10%, with nests higher than the mice. The amount of intact nesting material was weighed. The data were non-normally distributed.
Non normally distributed data were analyzed by a Kruskal Wallis test. A post-hoc test using Mann-Whitney tests with Bonferroni corrections was then used for group comparisons.
Nest building is one of several species-typical behavior in mice seen in semi-naturalistic situations. […] Alzheimer's disease in 5XFAD mice will damage these areas, leading to memory impairments in some standard cognitive tests, and to an impairment of species-typical behaviors like nesting.
The brain circuitry of wild type mice is intact so they show robust nest building behavior. Transgenic 5XFAD on the other hand have impaired brain circuitry due to the noxious effects of human amyloid-beta protein. They are therefore less able to fulfill this important house-keeping species typical behavior (Deacon R M. (2006): Assessing nest building in mice. Nat Protoc. 2006; 1(3):1117-9; Tomida et al (2009): Usp46 is a quantitative trait gene regulating mouse immobile behavior in the tail suspension and forced swimming tests. Nat Genet. 2009 June; 41(6):688-95. Epub 2009 May 24.).

[5] = tested on: Tg2576 mice; experiment: Contextual fear conditioning in Tg2576 mice; format: in vivo, mouse; conditions: 9-month-old Tg2576 mice, feeding pellets for 12 weeks
Description: Groups of Tg2576 mice overexpressing the 695-amino acid isoform of human amyloid precursor protein containing a Lys670→Asn, Met671→Leu mutation (Hsiao, K. Science 1996) and wildtype control mice (13-21 per phenotype) were conditioned on day 1 by placing a subject mouse in a contextual fear conditioning chamber (Med Associates, […], Vt.). Exploration was allowed for 2 min, and an auditory cue was presented for 15 s accompanied by an electrical foot shock during the last 2 s. This procedure was repeated and mice were removed from the chamber after 30 s. Twenty hours later, mice were returned to the chamber in which conditioning occured, and their freezing behaviour (fear) was monitored. Freezing was defined as the lack of all movements, except those required for breathing (Comery, T. A., et al. Journal of Neuroscience, 2005). Data were analysed by two-way ANOVA in the S programming environment, followed by Fischer's least significant difference (LSD) pairwise comparison of group means at the p<0.05 significance level.
The contextual fear conditioning paradigm is a form of Pavlovian learning in which an association is made between stimuli and their aversive consequences. Studies of brain function implicate the amygdala in regulating fear, and the hippocampus in regulating the learning of the context in which a fearful event occurred.
The brain circuitry in wild type mice is intact and they are better able to associate an aversive foot shock with the context or environment in which the shock took place. They therefore show more freezing. Transgenic Alzheimer mice have compromised brain circuitry due to the toxic effects of amyloid-beta protein. They are therefore less able to associate an aversive shock with a context and show less freezing.
A substance that reverses the toxic effects of amyloid-beta in Alzheimer's mice will help in reconsolidating the impaired brain circuitry so that these mice begin to show more fear (freezing behavior) after treatment. This paradigm is therefore a robust method for showing the effect of drug candidate molecules in Alzheimer mice.

[6] = parameters: Detection in brain after i.v. administration: key to the marks not given beside the values; conditions: mouse, in vivo
[7] = 30 μM Aβ1-42 peptide, 48 h at 37° C., vs DMSO control, read-out: ThioT: IC50
[8] = transgenic and wild-type mice vs control mice

| Detectability after oral administration ([1]; mouse brain, oral gavage or feeding pellets) | SMILES | Detection in brain after i.v. administration [1] | Detection in brain after oral administration, feeding pellet preparation [1] | Detection in brain after oral administration, oral gavage administration [1] | IC50 [2, 7] | IC50 at 48 h [3] | Nest building behavior ([4]; 5XFAD mice, pelleted mouse chow for 8.5 months) | Nest building behavior in transgenic mice ([4]; transgenic 5XFAD mice, higher concentration (625 mg/kg feed) vs control mice) | Nest building behavior (nestlet usage, FIG. 3a) [4, 8] | Nestlet quality score (FIG. 3b) [4, 8] | Contextual memory (freezing behaviour) [5] | Detection in brain after i.v. administration ([6]; iv, 5 mg/kg) | Detectability after oral administration ([6]; po) | Detection in brain after oral administration, feeding pellet preparation ([6]; po) | Detection in brain after oral administration, oral gavage administration ([6]; po) | IC50 [2] | IC50 [3] |
| --- | --- | --- | --- | --- | --- | --- | --- | --- | --- | --- | --- | --- | --- | --- | --- | --- | --- |
| – | O=[N+]([O-])c1ccc(N=Nc2ccc(Nc3ccccc3)cc2)cc1 [Compound 2, 4-((4-nitrophenyl)diazenyl)-N-phenylaniline] | ++ | ++^a), b) | ++^a), b) | 1.7 µM | > 100 µM | improved | significantly enhanced | increased | increases | improvement | – | – | – | – | – | – |
| excellent | c1ccc(N=Nc2ccc(Nc3ccccc3)cc2)cc1 [Compound 1, N-phenyl-4-(phenyldiazenyl)aniline] | ++ | ++^a), b) | ++^a), b) | 4.5 µM | > 30 µM | – | – | – | – | improvement | – | – | – | – | – | – |
| – | CN(C)c1ccc(N=Nc2ccc(N)cc2)cc1 [Compound 9, 4-((4-aminophenyl)diazenyl)-N,N-dimethylaniline] | – | – | – | – | – | – | – | – | – | improvement | ++ | excellent | ++^a)/+^b) | ++^a)/+^b) | 2.1 µM | > 100 µM |
